How the values were obtained:
[1] = Solubility (physicochemical properties); conditions: in methanol, ethyl acetate, dimethylsulfoxide, chloroform, hexane and water; result in words
human chymase = molecular target: T1, human chymase (Homo sapiens, UniProt P23946); test: Determination of chymase-inhibiting activity (Test Example 1); type: biochemical; conditions: activated human recombinant chymase; substrate succinyl-alanyl-histidyl-prolyl-phenylalanyl-para-nitroanilide; buffer pH 8.0; room temperature, 5 minutes; absorbance at 405 nm; read-out: 50% inhibitory concentrations (IC50) against the human chymase
T1 construct: made in house; host or cells: insect cells (Tn5) infected with recombinant baculovirus
T1 sequence (P23946 22-247): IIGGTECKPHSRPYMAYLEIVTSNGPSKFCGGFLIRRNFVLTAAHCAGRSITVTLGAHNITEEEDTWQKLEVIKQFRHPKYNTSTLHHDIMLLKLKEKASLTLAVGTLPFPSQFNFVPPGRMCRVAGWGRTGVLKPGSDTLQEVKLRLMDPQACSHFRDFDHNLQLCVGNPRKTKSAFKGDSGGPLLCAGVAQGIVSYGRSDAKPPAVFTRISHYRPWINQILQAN
Description: In this Example, the chymase-inhibiting activity of SF2809 substances was determined as described below.
A human recombinant chymase was prepared in accordance with the method of Urata et al's report (Urata et al., J. Biol. Chem., Vol. 266, p.17173, 1991). Thus, cultivation was made of insect cells (Tn5) which had been infected with recombinant baculovirus containing therein such cDNA that encodes the human chymase. The resulting culture of the insect cells was filtered and the resultant supernatant was treated with Heparin-sepharose (Pharmacia's product) to recover the chymase. The chymase so recovered was then purified. Then, the purified chymase was activated in accordance with the method of Murakami et al's report (Murakami et al, J. Biol. Chem., Vol. 270, p.2218, 1991), after which the activated chymase was purified with Heparin-sepharose to afford an activated type of human chymase.
To 50 μl of a buffer A (comprising 0.5˜3.0 M NaCl, 50 mM tris hydrochloric acid, pH 8.0) which contained 1˜5 ng of the active-type of human chymase as prepared in (1) above, there was added 2 μl of a solution in dimethylsulfoxide (DMSO) of an SF2809 substance as the test substance. Then, to the resulting mixture, there was added 50 μl of a buffer A which contained 0.5 mM of succinyl-alanyl-histidyl-prolyl-phenylalanyl-para-nitroanilide (Buckem's product) as a substrate. The resultant admixture was incubated at room temperature for 5 minutes. The change in the absorbance at 405 nm of the reaction solution was measured with passage of the incubation time, thereby to examine the chymase-inhibiting activity of the SF2809 substance under test.

Row | SMILES | IC50 (human chymase) [nM] | Solubility [1]
1 | Cn1c(=O)c(Cc2[nH]c3ccccc3c2CCO)c(O)c2ccccc21 [SF2809-III substance] | 2100 | Soluble in methanol, ethyl acetate and dimethylsulfoxide; sparingly soluble in chloroform; and insoluble in hexane and water
2 | Cn1c(=O)c(C(c2ccccc2)c2[nH]c3ccccc3c2CCO)c(O)c2ccccc21 (stereo not drawn) [SF2809-VI substance] | 14 | Soluble in methanol, ethyl acetate, dimethylsulfoxide and chloroform; and insoluble in hexane and water
3 | CC(=O)NCCc1c(C(c2ccc(O)cc2)c2c(O)c3ccccc3n(C)c2=O)[nH]c2ccccc12 (stereo not drawn) [SF2809-II substance] | 41 | Soluble in methanol, ethyl acetate and dimethylsulfoxide; sparingly soluble in chloroform; and insoluble in hexane and water

More lines, in order of falling IC50 (human chymase), values ahead:

Row | IC50 (human chymase) [nM] | SMILES | Solubility [1]
4 | 7300 | CC(=O)NCCc1c(Cc2c(O)c3ccccc3n(C)c2=O)[nH]c2ccccc12 [SF2809-I substance] | Soluble in methanol, ethyl acetate and dimethylsulfoxide; sparingly soluble in chloroform; and insoluble in hexane and water
5 | 81 | Cn1c(=O)c(C(c2ccc(O)cc2)c2[nH]c3ccccc3c2CCO)c(O)c2ccccc21 (stereo not drawn) [SF2809-IV substance] | Soluble in methanol, ethyl acetate and dimethylsulfoxide; sparingly soluble in chloroform; and insoluble in hexane and water
6 | 43 | CC(=O)NCCc1c(C(c2ccccc2)c2c(O)c3ccccc3n(C)c2=O)[nH]c2ccccc12 (stereo not drawn) [SF2809-V substance] | Soluble in methanol, ethyl acetate, dimethylsulfoxide and chloroform; and insoluble in hexane and water

Source: patent publication US6432978B1, “SF2809-I,II,III,IV,V and VI substances exhibiting chymase-inhibiting activities” (Meiji Seika Kaisha, Ltd., priority 1998, dated 2002)
